Assay [1] deals with Rattus norvegicus. In words: Antihyperglycemic activity in Rattus norvegicus Wistar albino (rat) assessed as blood glucose level at 20 mg/kg, po administered 30 min before 3 g/kg, po glucose challenge by oral glucose tolerance test (reference value: 149 +/- 6.3 mg/dl). The class given is functional.
The test system of assay [2] is Rattus norvegicus. Kind of assay: Antihyperglycemic activity in Rattus norvegicus Wistar albino (rat) assessed as reduction in blood glucose level at 20 mg/kg, po administered 30 min before 3 g/kg, po glucose challenge by oral glucose tolerance test. The class given is functional.

Active and inactive are the calls of the source. The rule behind the calls is not given here.

For the compound `O=C1CCC(c2ccc(Cl)cc2)=NN1c1ccc(S(=O)(=O)NC(=S)NCc2ccccc2)cc1`, the Activity in assay [1] stood at 128.5 mg/dL. In addition, in assay [2], the inhibition in vivo at 20 mg/kg was 38.8%.
Consider `CCc1ccc(C2=NN(c3ccc(S(=O)(=O)NC(=S)NCc4ccccc4)cc3)C(=O)CC2)cc1`, for which the Activity in assay [1] came to 148 mg/dL. The inhibition in vivo at 20 mg/kg in assay [2] came to 3.8%.
On to `CCCNC(=S)NS(=O)(=O)c1ccc(N2N=C(c3ccc(C)cc3)CCC2=O)cc1`, for which the Activity in assay [1] turned out to be 134.5 mg/dL. Moreover, the inhibition in vivo at 20 mg/kg in assay [2] was determined as 30.9%.
On to `O=C1CCC(c2ccccc2)=NN1c1ccc(S(=O)(=O)NC(=S)NCc2ccccc2)cc1`, for which the Activity in assay [1] is 139 mg/dL. For the same compound, the inhibition in vivo at 20 mg/kg in assay [2] came out at 26.6%.
Consider `COc1ccc(C2=NN(c3ccc(S(=O)(=O)NC(=S)Nc4ccccc4)cc3)C(=O)CC2)cc1`, for which the Activity in assay [1] is 170.5 mg/dL. Moreover, the inhibition entry in assay [2] is “inactive”.
Turning to `CCCNC(=S)NS(=O)(=O)c1ccc(N2N=C(c3ccc(Cl)cc3)CCC2=O)cc1`, the Activity in assay [1] was 132.5 mg/dL. The inhibition in vivo at 20 mg/kg in assay [2] amounted to 32.7%.
For `COc1ccc(C2=NN(c3ccc(S(=O)(=O)NC(=S)NCc4ccccc4)cc3)C(=O)CC2)cc1`, in that order: 152 mg/dL and 5.6%.
`O=C1CCC(c2ccc(Cl)cc2)=NN1c1ccc(S(=O)(=O)NC(=S)Nc2ccccc2)cc1`: the Activity in assay [1] is 148 mg/dL. The inhibition in vivo at 20 mg/kg in assay [2] is 4.7%.
On the same counts, the results for `O=C1CCC(c2ccc(-c3ccccc3)cc2)=NN1c1ccc(S(=O)(=O)NC(=S)NCc2ccccc2)cc1` are 137.5 mg/dL and 24.8%.
On to `COc1ccc(Cl)cc1C(=O)NCCc1ccc(S(=O)(=O)NC(=O)NC2CCCCC2)cc1` [GLYBURIDE], for which the Activity in assay [1] turned out to be 94.3 mg/dL.
On to `CCCNC(=S)NS(=O)(=O)c1ccc(N2N=C(c3ccccc3)CCC2=O)cc1`, for which the Activity in assay [1] was 160 mg/dL. Besides, the inhibition entry in assay [2] was “inactive”.
Turning to `O=C1CCC(c2ccc(-c3ccccc3)cc2)=NN1c1ccc(S(=O)(=O)NC(=S)Nc2ccccc2)cc1`, the Activity in assay [1] stood at 166 mg/dL. Further, in assay [2], the inhibition result is “inactive”.
On to `O=C1CCC(c2ccc(Oc3ccccc3)cc2)=NN1c1ccc(S(=O)(=O)NC(=S)NCc2ccccc2)cc1`, for which the Activity in assay [1] was 147.5 mg/dL. Further, the inhibition in vivo at 20 mg/kg in assay [2] came to 3%.
As for `Cc1ccc(C2=NN(c3ccc(S(=O)(=O)NC(=S)NCc4ccccc4)cc3)C(=O)CC2)cc1`, the Activity in assay [1] stood at 136 mg/dL. Also, in assay [2], the inhibition in vivo at 20 mg/kg worked out at 21.3%.
With `CCCNC(=S)NS(=O)(=O)c1ccc(N2N=C(c3ccc(OC)cc3)CCC2=O)cc1`, the Activity in assay [1] was determined as 132 mg/dL. The inhibition in vivo at 20 mg/kg in assay [2] stood at 37.1%.
Consider `CCCNC(=S)NS(=O)(=O)c1ccc(N2N=C(c3ccc(Oc4ccccc4)cc3)CCC2=O)cc1`, for which the Activity in assay [1] was 152 mg/dL. The inhibition result in assay [2] was “inactive”.

The inhibition in vivo is the drop in the measured response relative to a control, in per cent.

These data come from ChEMBL document CHEMBL3044906, “Synthesis and blood glucose lowering activity of some novel benzenesulfonylthiourea derivatives substituted with 6-aryl-4,5-dihyropyridazin-3(2H)-ones” (2012).
